# “And” between values parts separate entries of the source, which are not always exact repeats. Identical values can stand only once.
# Columns and labels:
# [1] = Autofluorescence excitation scan (Ensight multimodal plate reader); assay type: physicochemical; settings: 100 mM; for excitation peak point (first, lower-wavelength peak) / excitation peak point (second, higher-wavelength peak) / fluorescence intensity at first excitation peak / fluorescence intensity at second excitation peak: ethanol as vehicle
# Description: (§1) Botanically derived purified CBDV (BOT) and Synthetic CBDV (SYN) were tested in duplicates at five concentrations of 0.1 mM, 0.5 mM, 1 mM, 50 mM and 100 mM in 100% DMSO or 100% Ethanol.
# (§2) 200 μL of each sample or buffer were added into microplates in duplicate. Measurement has been performed on the Ensight multimodal plate reader (Perkin Elmer).
# An excitation scan was used to detect the excitation peak for each test substance. The excitation scan was set from 230 to 380 nm and below the emission wavelength of 400 nm. The excitation scan was also set from 230 to 420 nm and below the emission wavelength of 440 nm. In both cases, a step increment of 2 nm was used for these scans.
# Based on these analyses, the peaks of excitation wavelengths for the two tentative emission wavelengths were determined and used to identify the optimal excitation wavelength/s.
# [2] = Autofluorescence emission scan (Ensight multimodal plate reader); assay type: physicochemical; settings: 100 mM
# Description: as §1, §2
# In order to confirm the emission peak of the test substance, an emission scan was performed using the excitation peaks identified after the excitation scan. The […] was set to start for botanically derived purified CBDV and synthetic CBDV at 20 nm above the tentative excitation values using a step increment of 2 nm. Wavelengths up to 800 nm were scanned for emission.
# The wavelength giving the maximum emission for the samples was defined as the optimal emission wavelength for the chosen excitation wavelength.
# [3] = test system: sub-chronic PCP-induced deficit in novel object recognition; assay: Novel object recognition (NOR) test after sub-chronic PCP, animal model of schizophrenia; assay type: in vivo, rat (female hooded-Lister)
# From the text: The effect of PCP in the novel object recognition (NOR) test is a model of visual recognition memory deficits similar to those observed in schizophrenia. The atypical antipsychotics, clozapine and risperidone, can attenuate the deficit. The study was designed to determine if botanically derived purified CBDV and/or synthetic CBDV could attenuate the deficits in novel object recognition caused by administration of PCP.
# Female hooded-Lister rats were used for this experiment. Rats were housed in groups of 5 under standard laboratory conditions under a 12 hr light: dark cycle, with lights on at 0700 hr. Testing was carried out in the light phase. Rats were randomly assigned to two treatment groups and treated with vehicle, n=15 (distilled water, i.p.) or Phencyclidine hydrochloride (PCP), n=75 (2 mg/kg, i.p. twice daily for 7-days). PCP was dissolved in distilled water. This was followed by a 7-day wash out period before the rats were tested following acute treatment with […], risperidone or vehicle. […]
# Following the 3 minute habituation period, the rats are given two 3 minute trials (T1 and T2) which were separated by a 1 minute inter-trial interval in the home cage during which the objects were changed. Behavior in all trials was recorded on video for subsequent blind scoring. […]
# The exploration time(s) of each object (A, B, familiar and novel) in each trial were recorded using two stopwatches and the following factors were calculated: total exploration time of both objects in the acquisition trial, total exploration time of both objects in the retention trial. Habituation of exploratory activity included the exploration time, as measured by the number of lines crossed, for both trials.
# All data were assessed for normality using D'Agostino and Pearson normality test. Data non-normally distributed were analyzed using Kruskal-Wallis followed by planned comparisons with Dunn's correction. Normally distributed data were analyzed using one-way ANOVA followed by planned comparisons with Sidak's correction. […]
# [4] = cited from earlier work
# [5] = emission wavelength set at 400 nm
# [6] = emission wavelength set at 440 nm
# [7] = DMSO as vehicle, excitation wavelength set at 328 nm
# [8] = DMSO as vehicle, excitation wavelength set at 334 nm
# [9] = DMSO as vehicle, excitation wavelength set at 344 nm
# [10] = ethanol as vehicle, excitation wavelength set at 326 nm
# [11] = ethanol as vehicle, excitation wavelength set at 340 nm
compound,measurement,setting,value
"C=C(C)[C@@H]1CCC(C)=C[C@H]1c1c(O)cc(CCC)cc1O [synthetic CBDV, Cannabidivarin]","excitation peak point (first, lower-wavelength peak)",[1]; [5],282 nm
same,"excitation peak point (second, higher-wavelength peak)",[1]; [5],324 nm
same,fluorescence intensity at first excitation peak,[1]; [5],139797 au
same,fluorescence intensity at second excitation peak,[1]; [5],123100 au
same,"excitation peak point (first, lower-wavelength peak)",[1]; [6],280 nm
same,"excitation peak point (second, higher-wavelength peak)",[1]; [6],326 nm
same,fluorescence intensity at first excitation peak,[1]; [6],39433 au
same,fluorescence intensity at second excitation peak,[1]; [6],41443 au
same,excitation peak points,"[1]; pure DMSO as vehicle, emission wavelength set at 400 nm",282 nm and 326 nm
same,emission peak point,[2]; [7],394 nm
same,fluorescence intensity at emission peak,[2]; [7],264597 au
same,emission peak point,[2]; [8],392 nm
same,fluorescence intensity at emission peak,[2]; [8],201880 au
same,emission peak point,[2]; [9],390 nm
same,fluorescence intensity at emission peak,[2]; [9],158071 au
same,emission peak point,[2]; [10],390 nm
same,fluorescence intensity at emission peak,[2]; [10],67541 au
same,emission peak wavelength,[2]; [11],378 nm
same,fluorescence intensity at peak,[2]; [11],29009 au
same,human daily amount of CBDV corresponding to the rat MED,"[3]; 70 kg human, rat dose x 0.16 x 70",224 mg/day
same,human equivalent dose of the rat MED,[3]; rat dose multiplied by 0.16 (FDA dose conversion guidance),3.2 mg/kg/day
same,minimal effective dose (MED) attenuating sub-chronic PCP-induced deficit in novel object recognition,"[3]; rats, 2-20 mg/kg i.p., 60 min ppt, n=8-10 per group",20 mg/kg
"C=C(C)[C@@H]1CCC(C)=C[C@H]1c1c(O)cc(CCC)cc1O [CBDV, 2-[(1R,6R)-3-Methyl-6-(1-methylethenyl)-2-cyclohexen-1-yl]-5-propyl-1,3-benzenediol]",solubility in organic solvents,[4]; organic solvents,soluble
same,solubility in water,[4]; water,insoluble

# Reference: patent US20220387350A1, “CANNABIDIVARIN PREPARATIONS FOR USE AS A MEDICAMENT” (GW Research Limited, priority 2019, published 2022)
